Test results: patent US20250353891A1 (MEDIMMUNE LIMITED, priority 2022, published 2025)
pEC50: −log10 of the molar value. Starred links: 1 amine or outer side, 2 acyl side, 3 side chain; linkers in the order of their positions; H or OH if unused. Non-standard residues stand in square brackets, D forms with d. Residues, ends and D or L forms follow the SMILES beside them. Groups on a side chain read outwards from the residue. *: point of attachment. C20 diacid = O=C(O)CCCCCCCCCCCCCCCCCCC(=O)*; γGlu = O=C(O)[C@H](CCC(=O)[*:2])N[*:1]; αMeF = C[C@](N)(Cc1ccccc1)C(=O)O; AEEA = NCCOCCOCC(=O)O; Aib = CC(C)(N)C(=O)O

Assays:
[1] = molecular target: human GLP-1 receptor (hGLP-1R) (Homo sapiens, UniProt P43220); experiment: cAMP production (HTRF) in CHO cells expressing hGLP-1R; assay type: cell-based; design: expressed in transfected cells; details: for pEC50: Table 6, peptides modified at position 17, cAMP in CHO hGLP-1R cells, geometric mean, read-out: hGLP-1R EC50; for % Relative Potency Ratio: Table 6, % GLP-1R activity relative to GLP-1 / % GlucR activity relative to glucagon
Chain of human GLP-1 receptor (hGLP-1R) (P43220 24-463): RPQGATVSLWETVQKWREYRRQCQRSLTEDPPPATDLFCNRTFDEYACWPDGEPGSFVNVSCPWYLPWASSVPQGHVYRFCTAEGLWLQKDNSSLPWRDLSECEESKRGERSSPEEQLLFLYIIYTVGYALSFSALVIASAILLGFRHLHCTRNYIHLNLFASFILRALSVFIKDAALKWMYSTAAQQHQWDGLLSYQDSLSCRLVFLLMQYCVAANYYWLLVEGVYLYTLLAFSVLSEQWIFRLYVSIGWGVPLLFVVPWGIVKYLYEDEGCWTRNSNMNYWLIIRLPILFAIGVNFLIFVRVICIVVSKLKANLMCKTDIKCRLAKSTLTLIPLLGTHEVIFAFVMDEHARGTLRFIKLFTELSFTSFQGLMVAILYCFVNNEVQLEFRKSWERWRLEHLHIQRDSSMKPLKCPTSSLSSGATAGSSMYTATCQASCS
How it was run: (§1)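 Cells were resuspended in assay buffer at batch-optimized density, typically 1×10^5 cells/mL for hGLP-1R and 2×10^5 cells/mL for hGCGR. After 30 min incubation at room temperature with compound, cAMP was measured by two-step HTRF. EC50 values came from 4-parameter logistic fits of % Delta F.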

[2] = molecular target: human glucagon receptor (hGCGR) (Homo sapiens, UniProt P47871); experiment: cAMP production (HTRF) in CHO cells expressing hGCGR; assay type: cell-based; design: expressed in transfected cells; details: Table 6, peptides modified at position 17; cAMP in CHO hGCGR cells; geometric mean; read-out: hGluc-R EC50
Chain of human glucagon receptor (hGCGR) (P47871 26-477): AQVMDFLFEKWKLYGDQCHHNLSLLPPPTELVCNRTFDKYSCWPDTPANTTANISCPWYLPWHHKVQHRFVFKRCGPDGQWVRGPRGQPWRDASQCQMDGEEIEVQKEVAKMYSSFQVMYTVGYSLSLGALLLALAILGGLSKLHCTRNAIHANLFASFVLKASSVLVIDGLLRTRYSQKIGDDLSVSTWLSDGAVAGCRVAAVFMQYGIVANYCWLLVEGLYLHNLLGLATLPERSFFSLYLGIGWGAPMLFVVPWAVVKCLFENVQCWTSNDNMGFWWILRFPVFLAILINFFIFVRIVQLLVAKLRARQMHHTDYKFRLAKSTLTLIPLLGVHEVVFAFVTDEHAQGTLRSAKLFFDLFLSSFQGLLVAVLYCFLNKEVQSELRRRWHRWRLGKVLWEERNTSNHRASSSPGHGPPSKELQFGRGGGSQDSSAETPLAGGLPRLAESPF
How it was run: as §1

Row | Structure (SMILES) | pEC50 [1] | % Relative Potency Ratio [1] | pEC50 [2]
1 | CC(C)C[C@H](NC(=O)[C@H](C)NC(=O)[C@H](CCCNC(=N)N)NC(=O)[C@H](CCCCNC(=O)COCCOCCNC(=O)COCCOCCNC(=O)CC[C@H](NC(=O)CCCCCCCCCCCCCCCCCCC(=O)O)C(=O)O)NC(=O)[C@H](CCCCN)NC(=O)[C@H](CC(=O)O)NC(=O)[C@H](CC(C)C)NC(=O)[C@](C)(Cc1ccccc1)NC(=O)[C@H](CCCCN)NC(=O)[C@H](CO)NC(=O)[C@@H](NC(=O)[C@H](CC(=O)O)NC(=O)[C@H](CO)NC(=O)[C@@H](NC(=O)[C@H](Cc1ccccc1)NC(=O)[C@@H](NC(=O)CNC(=O)[C@H](CCC(N)=O)NC(=O)C(C)(C)NC(=O)[C@@H](N)Cc1c[nH]cn1)[C@@H](C)O)[C@@H](C)O)C(C)C)C(=O)N[C@@H](CC(=O)O)C(=O)N[C@@H](Cc1ccccc1)C(=O)N[C@H](C(=O)N[C@@H](CCCNC(=N)N)C(=O)N[C@@H](Cc1c[nH]c2ccccc12)C(=O)N[C@@H](CC(C)C)C(=O)N[C@@H](CC(C)C)C(=O)NC(C)(C)C(=O)N[C@@H](CCC(=O)O)C(N)=O)C(C)C [Peptide 452] (H-H[Aib]QGTFTSDVSK[αMeF]LDKK([AEEA-AEEA-γGlu-C20 diacid])RALDFVRWLL[Aib]E-NH2) | 9.31 | 0.6 | 9.82
2 | CC(C)C[C@H](NC(=O)[C@H](Cc1c[nH]c2ccccc12)NC(=O)[C@H](CCCNC(=N)N)NC(=O)[C@@H](NC(=O)[C@H](Cc1ccccc1)NC(=O)[C@H](CC(=O)O)NC(=O)[C@H](CCC(N)=O)NC(=O)[C@H](C)NC(=O)[C@H](CCCNC(=N)N)NC(=O)[C@H](CCCCNC(=O)COCCOCCNC(=O)COCCOCCNC(=O)CC[C@H](NC(=O)CCCCCCCCCCCCCCCCCCC(=O)O)C(=O)O)NC(=O)[C@H](CCCCN)NC(=O)[C@H](CC(=O)O)NC(=O)[C@H](CC(C)C)NC(=O)[C@](C)(Cc1ccccc1)NC(=O)[C@H](CCCCN)NC(=O)[C@H](CO)NC(=O)[C@@H](NC(=O)[C@H](CC(=O)O)NC(=O)[C@H](CO)NC(=O)[C@@H](NC(=O)[C@H](Cc1ccccc1)NC(=O)[C@@H](NC(=O)CNC(=O)[C@H](CCC(N)=O)NC(=O)C(C)(C)NC(=O)[C@@H](N)Cc1c[nH]cn1)[C@@H](C)O)[C@@H](C)O)C(C)C)C(C)C)C(=O)N[C@@H](CC(C)C)C(=O)N[C@@H](CCC(=O)O)C(=O)NC(C)(C)C(=O)NCC(N)=O [Peptide 453] | 9.77 | 1.9 | 9.79
3 | CC(C)C[C@H](NC(=O)[C@H](Cc1c[nH]c2ccccc12)NC(=O)[C@H](CCCNC(=N)N)NC(=O)[C@@H](NC(=O)[C@H](Cc1ccccc1)NC(=O)[C@H](CC(=O)O)NC(=O)[C@H](CCC(N)=O)NC(=O)[C@H](C)NC(=O)[C@H](CCCNC(=N)N)NC(=O)[C@H](CCCCNC(=O)COCCOCCNC(=O)COCCOCCNC(=O)CC[C@H](NC(=O)CCCCCCCCCCCCCCCCCCC(=O)O)C(=O)O)NC(=O)[C@H](CCCCN)NC(=O)[C@H](CC(=O)O)NC(=O)[C@H](CC(C)C)NC(=O)[C@](C)(Cc1ccccc1)NC(=O)[C@H](CCCCN)NC(=O)[C@H](CO)NC(=O)[C@@H](NC(=O)[C@H](CC(=O)O)NC(=O)[C@H](CO)NC(=O)[C@@H](NC(=O)[C@H](Cc1ccccc1)NC(=O)[C@@H](NC(=O)CNC(=O)[C@H](CCC(N)=O)NC(=O)C(C)(C)NC(=O)[C@@H](N)Cc1c[nH]cn1)[C@@H](C)O)[C@@H](C)O)C(C)C)C(C)C)C(=O)N[C@@H](CCC(=O)O)C(=O)N[C@@H](C)C(=O)NC(C)(C)C(=O)NCC(N)=O [Peptide 454] (H-H[Aib]QGTFTSDVSK[αMeF]LDKK([AEEA-AEEA-γGlu-C20 diacid])RAQDFVRWLEA[Aib]G-NH2) | 9.76 | 3.1 | 9.56
4 | CC(C)C[C@H](NC(=O)[C@H](Cc1c[nH]c2ccccc12)NC(=O)[C@H](CCCNC(=N)N)NC(=O)[C@@H](NC(=O)[C@H](Cc1ccccc1)NC(=O)[C@H](CC(=O)O)NC(=O)[C@H](CCC(N)=O)NC(=O)[C@H](C)NC(=O)[C@H](CCCNC(=N)N)NC(=O)[C@H](CCCCNC(=O)COCCOCCNC(=O)COCCOCCNC(=O)CC[C@H](NC(=O)CC[C@H](NC(=O)CCCCCCCCCCCCCCCCCCC(=O)O)C(=O)O)C(=O)O)NC(=O)[C@H](CCCCN)NC(=O)[C@H](CC(=O)O)NC(=O)[C@H](CC(C)C)NC(=O)[C@](C)(Cc1ccccc1)NC(=O)[C@H](CCCCN)NC(=O)[C@H](CO)NC(=O)[C@@H](NC(=O)[C@H](CC(=O)O)NC(=O)[C@H](CO)NC(=O)[C@@H](NC(=O)[C@H](Cc1ccccc1)NC(=O)[C@@H](NC(=O)CNC(=O)[C@H](CCC(N)=O)NC(=O)C(C)(C)NC(=O)[C@@H](N)Cc1c[nH]cn1)[C@@H](C)O)[C@@H](C)O)C(C)C)C(C)C)C(=O)N[C@@H](CC(C)C)C(=O)NC(C)(C)C(=O)N[C@@H](CCC(=O)O)C(N)=O [Peptide 455] (H-H[Aib]QGTFTSDVSK[αMeF]LDKK([AEEA-AEEA-γGlu-γGlu-C20 diacid])RAQDFVRWLL[Aib]E-NH2) | 9.90 | 1.8 | 9.94
5 | CC(C)C[C@H](NC(=O)[C@H](Cc1c[nH]c2ccccc12)NC(=O)[C@H](CCCNC(=N)N)NC(=O)[C@@H](NC(=O)[C@H](Cc1ccccc1)NC(=O)[C@H](CC(=O)O)NC(=O)[C@H](CCC(N)=O)NC(=O)[C@H](C)NC(=O)[C@H](CCCNC(=N)N)NC(=O)[C@H](CCCCNC(=O)COCCOCCNC(=O)COCCOCCNC(=O)CC[C@H](NC(=O)CCCCCCCCCCCCCCCCCCC(=O)O)C(=O)O)NC(=O)[C@H](CCCNC(=N)N)NC(=O)[C@H](CC(=O)O)NC(=O)[C@H](CC(C)C)NC(=O)[C@](C)(Cc1ccccc1)NC(=O)[C@H](CCCCN)NC(=O)[C@H](CO)NC(=O)[C@@H](NC(=O)[C@H](CC(=O)O)NC(=O)[C@H](CO)NC(=O)[C@@H](NC(=O)[C@H](Cc1ccccc1)NC(=O)[C@@H](NC(=O)CNC(=O)[C@H](CCC(N)=O)NC(=O)C(C)(C)NC(=O)[C@@H](N)Cc1c[nH]cn1)[C@@H](C)O)[C@@H](C)O)C(C)C)C(C)C)C(=O)N[C@@H](CC(C)C)C(=O)NC(C)(C)C(=O)N[C@@H](CCC(=O)O)C(N)=O [Peptide 456] (H-H[Aib]QGTFTSDVSK[αMeF]LDRK([AEEA-AEEA-γGlu-C20 diacid])RAQDFVRWLL[Aib]E-NH2; N-terminus assumed) | 9.88 | 1.2 | 10.10
6 | CC(C)C[C@H](NC(=O)[C@H](Cc1c[nH]c2ccccc12)NC(=O)[C@H](CCC(N)=O)NC(=O)[C@@H](NC(=O)[C@H](Cc1ccccc1)NC(=O)[C@H](CC(=O)O)NC(=O)[C@H](CCCNC(=N)N)NC(=O)[C@H](C)NC(=O)[C@H](CCCNC(=N)N)NC(=O)[C@H](CCCCNC(=O)COCCOCCNC(=O)COCCOCCNC(=O)CC[C@H](NC(=O)CCCCCCCCCCCCCCCCCCC(=O)O)C(=O)O)NC(=O)[C@@H](NC(=O)[C@H](CC(=O)O)NC(=O)[C@H](CC(C)C)NC(=O)[C@](C)(Cc1ccccc1)NC(=O)[C@H](CCCCN)NC(=O)[C@H](CO)NC(=O)[C@@H](NC(=O)[C@H](CC(=O)O)NC(=O)[C@H](CO)NC(=O)[C@@H](NC(=O)[C@H](Cc1ccccc1)NC(=O)[C@@H](NC(=O)CNC(=O)[C@H](CCC(N)=O)NC(=O)C(C)(C)NC(=O)[C@@H](N)Cc1c[nH]cn1)[C@@H](C)O)[C@@H](C)O)C(C)C)[C@@H](C)O)C(C)C)C(=O)N[C@@H](CC(C)C)C(=O)N[C@@H](CCC(=O)O)C(=O)NC(C)(C)C(=O)NCC(N)=O [Peptide 457] | 9.96 | 3.7 | 9.69
